Experiment: Stability of human ghrelin in 0.1M HCl and Mcllvain buffer solutions of various pH at 25°C (Example 2, HPLC peak area ratio)
Type: physicochemical
Method: Human ghrelin was dissolved in the following aqueous solutions in the concentration of about 0.15 μmol/mL (0.5 mg/mL).
0.1M HCl aqueous solution (pH: 1.1)
The pH was adjusted with 0.1M citric aqueous acid and 0.2M dibasic sodium phosphate aqueous solution.
Each solution were stored at 25±2° C. for 8, 24, 48 and 72 hours respectively, and the obtained solutions were detected by HPLC analysis in comparison to the solutions before storage. […] No significant changes of pH in solution before storage and after storage were observed.

[1] = human ghrelin 0.5 mg/mL in 0.1M HCl aqueous solution, pH 1, 25±2°C, 8 hr. after
[2] = human ghrelin 0.5 mg/mL in 0.1M HCl aqueous solution, pH 1, 25±2°C, 24 hr. after
[3] = human ghrelin 0.5 mg/mL in 0.1M HCl aqueous solution, pH 1, 25±2°C, 48 hr. after
[4] = human ghrelin 0.5 mg/mL in 0.1M HCl aqueous solution, pH 1, 25±2°C, 72 hr. after
[5] = human ghrelin 0.5 mg/mL in 0.1M HCl aqueous solution, pH 1, 25±2°C, before storage
[6] = human ghrelin 0.5 mg/mL in Mcllvain buffer, pH 2, 25±2°C, 8 hr. after
[7] = human ghrelin 0.5 mg/mL in Mcllvain buffer, pH 2, 25±2°C, 24 hr. after
[8] = human ghrelin 0.5 mg/mL in Mcllvain buffer, pH 2, 25±2°C, 48 hr. after
[9] = human ghrelin 0.5 mg/mL in Mcllvain buffer, pH 2, 25±2°C, 72 hr. after
[10] = human ghrelin 0.5 mg/mL in Mcllvain buffer, pH 2, 25±2°C, before storage
[11] = human ghrelin 0.5 mg/mL in Mcllvain buffer, pH 3, 25±2°C, 8 hr. after
[12] = human ghrelin 0.5 mg/mL in Mcllvain buffer, pH 3, 25±2°C, 24 hr. after
[13] = human ghrelin 0.5 mg/mL in Mcllvain buffer, pH 3, 25±2°C, 48 hr. after
[14] = human ghrelin 0.5 mg/mL in Mcllvain buffer, pH 3, 25±2°C, 72 hr. after
[15] = human ghrelin 0.5 mg/mL in Mcllvain buffer, pH 3, 25±2°C, before storage
[16] = human ghrelin 0.5 mg/mL in Mcllvain buffer, pH 4, 25±2°C, 8 hr. after
[17] = human ghrelin 0.5 mg/mL in Mcllvain buffer, pH 4, 25±2°C, 24 hr. after
[18] = human ghrelin 0.5 mg/mL in Mcllvain buffer, pH 4, 25±2°C, 48 hr. after
[19] = human ghrelin 0.5 mg/mL in Mcllvain buffer, pH 4, 25±2°C, 72 hr. after
[20] = human ghrelin 0.5 mg/mL in Mcllvain buffer, pH 4, 25±2°C, before storage
[21] = human ghrelin 0.5 mg/mL in Mcllvain buffer, pH 5, 25±2°C, 8 hr. after
[22] = human ghrelin 0.5 mg/mL in Mcllvain buffer, pH 5, 25±2°C, 24 hr. after
[23] = human ghrelin 0.5 mg/mL in Mcllvain buffer, pH 5, 25±2°C, 48 hr. after
[24] = human ghrelin 0.5 mg/mL in Mcllvain buffer, pH 5, 25±2°C, 72 hr. after
[25] = human ghrelin 0.5 mg/mL in Mcllvain buffer, pH 5, 25±2°C, before storage
[26] = human ghrelin 0.5 mg/mL in Mcllvain buffer, pH 6, 25±2°C, 8 hr. after
[27] = human ghrelin 0.5 mg/mL in Mcllvain buffer, pH 6, 25±2°C, 24 hr. after
[28] = human ghrelin 0.5 mg/mL in Mcllvain buffer, pH 6, 25±2°C, 48 hr. after
[29] = human ghrelin 0.5 mg/mL in Mcllvain buffer, pH 6, 25±2°C, 72 hr. after

For `CCCCCCCC(=O)OC[C@H](NC(=O)[C@H](CO)NC(=O)CN)C(=O)N[C@@H](Cc1ccccc1)C(=O)N[C@@H](CC(C)C)C(=O)N[C@@H](CO)C(=O)N1CCC[C@H]1C(=O)N[C@@H](CCC(=O)O)C(=O)N[C@@H](Cc1c[nH]cn1)C(=O)N[C@@H](CCC(N)=O)C(=O)N[C@@H](CCCNC(=N)N)C(=O)N[C@H](C(=O)N[C@@H](CCC(N)=O)C(=O)N[C@@H](CCC(N)=O)C(=O)N[C@@H](CCCNC(=N)N)C(=O)N[C@@H](CCCCN)C(=O)N[C@@H](CCC(=O)O)C(=O)N[C@@H](CO)C(=O)N[C@@H](CCCCN)C(=O)N[C@@H](CCCCN)C(=O)N1CCC[C@H]1C(=O)N1CCC[C@H]1C(=O)N[C@@H](C)C(=O)N[C@@H](CCCCN)C(=O)N[C@@H](CC(C)C)C(=O)N[C@@H](CCC(N)=O)C(=O)N1CCC[C@H]1C(=O)N[C@@H](CCCNC(=N)N)C(=O)O)C(C)C` [Human ghrelin], the “Peak area ratio to total peak area” value [1] was 94.40%, the pH observed [1] was 1.2 and the “Peak area ratio to total peak area” value [2] was 86.00%. The pH observed [2] was 1.2, the “Peak area ratio to total peak area” value [3] was 74.62% and the pH observed [3] was 1.2. For the same molecule, the “Peak area ratio to total peak area” value [4] was 65.04%, the pH observed [4] was 1.2 and the “Peak area ratio to total peak area” value [5] was 98.89%. For the same molecule, the pH observed [5] was 1.1, the “Peak area ratio to total peak area” value [6] was 98.82% and the pH observed [6] was 2.0. For the same molecule, the “Peak area ratio to total peak area” value [7] was 98.24%, the pH observed [7] was 2.0 and the “Peak area ratio to total peak area” value [8] was 97.35%. The pH observed [8] was 2.0, the “Peak area ratio to total peak area” value (human ghrelin 0.5 mg/mL in Mcllvain buffer, pH 2, 25±2°C, 48 hr. after, listed as human ghrelin) was “less than 98%” and the “Peak area ratio to total peak area” value [9] was 96.46%. The pH observed [9] was 2.0, the “Peak area ratio to total peak area” value [10] was 99.07% and the pH observed [10] was 2.0. The “Peak area ratio to total peak area” value [11] was 98.98%, the pH observed [11] was 3.1 and the “Peak area ratio to total peak area” value [12] was 98.77%. The pH observed [12] was 3.1, the “Peak area ratio to total peak area” value [13] was 98.40% and the pH observed [13] was 3.1. For the same molecule, the “Peak area ratio to total peak area” value [14] was 98.03%, the pH observed [14] was 3.1 and the “Peak area ratio to total peak area” value [15] was 99.07%. For the same molecule, the pH observed [15] was 3.0, the “Peak area ratio to total peak area” value [16] was 99.07% and the pH observed [16] was 4.0. For the same molecule, the “Peak area ratio to total peak area” value [17] was 98.92%, the pH observed [17] was 4.0 and the “Peak area ratio to total peak area” value [18] was 98.69%. For the same molecule, the pH observed [18] was 4.0, the “Peak area ratio to total peak area” value [19] was 98.44% and the pH observed [19] was 4.0. The “Peak area ratio to total peak area” value [20] was 99.07%, the pH observed [20] was 4.0 and the “Peak area ratio to total peak area” value [21] was 99.04%. For the same molecule, the pH observed [21] was 5.0, the “Peak area ratio to total peak area” value [22] was 98.91% and the pH observed [22] was 5.0. For the same molecule, the “Peak area ratio to total peak area” value [23] was 98.59%, the pH observed [23] was 5.0 and the “Peak area ratio to total peak area” value [24] was 98.37%. The pH observed [24] was 5.0, the “Peak area ratio to total peak area” value [25] was 99.06% and the pH observed [25] was 5.0. For the same molecule, the “Peak area ratio to total peak area” value [26] was 98.87%, the pH observed [26] was 6.0 and the “Peak area ratio to total peak area” value [27] was 98.28%. The pH observed [27] was 6.0, the “Peak area ratio to total peak area” value [28] was 97.64% and the pH observed [28] was 6.0. For the same molecule, the “Peak area ratio to total peak area” value (human ghrelin 0.5 mg/mL in Mcllvain buffer, pH 6, 25±2°C, 48 hr. after, listed as human ghrelin) was “less than 98%”, the “Peak area ratio to total peak area” value [29] was 96.92% and the pH observed [29] was 6.0.

Reference: US8440628B2, “Medical compositions containing ghrelin” (Daiichi Sankyo Company, Limited, priority 2002, dated 2013)
